Laboratory results reported in publication doi:10.1101/713214v1 (biorxiv, 2019).

Columns and labels:
Type in all cases: biochemical
EcClpP = EcClpP (Escherichia coli, UniProt P0A6G7); assay: fluorogenic peptidase assay, Suc-LY-AMC
PaClpP1 = PaClpP1 (Pseudomonas aeruginosa, UniProt Q9I2U1); assay: fluorogenic peptidase assay, Suc-LY-AMC
MtbClpP1P2 = MtbClpP1P2 (Mycobacterium tuberculosis, UniProt P9WPC5); assay: fluorogenic peptidase assay, Z-Gly-Gly-Leu-AMC
hClpP = hClpP (Homo sapiens, UniProt Q16740); assay: fluorogenic peptidase assay, Suc-LY-AMC
Sequence of hClpP (Q16740 58-277): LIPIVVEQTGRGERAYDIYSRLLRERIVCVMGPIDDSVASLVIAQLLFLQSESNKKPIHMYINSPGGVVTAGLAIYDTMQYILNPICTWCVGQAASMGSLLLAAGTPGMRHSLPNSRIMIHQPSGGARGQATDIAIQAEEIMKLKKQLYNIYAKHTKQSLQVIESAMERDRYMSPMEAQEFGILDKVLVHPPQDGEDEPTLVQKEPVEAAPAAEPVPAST

SaClpP = molecular target: T1, SaClpP (Staphylococcus aureus, UniProt Q2G036); assay: fluorogenic peptidase assay, Suc-LY-AMC
T1 sequence (Q2G036 1-195): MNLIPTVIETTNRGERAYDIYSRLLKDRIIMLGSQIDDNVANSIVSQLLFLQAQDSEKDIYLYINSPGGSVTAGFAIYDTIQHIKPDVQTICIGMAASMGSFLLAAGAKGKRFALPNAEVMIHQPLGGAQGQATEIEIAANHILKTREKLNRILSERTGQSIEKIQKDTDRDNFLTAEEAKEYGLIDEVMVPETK

Sequence of MtbClpP1P2 (P9WPC5 whole entry, looked up): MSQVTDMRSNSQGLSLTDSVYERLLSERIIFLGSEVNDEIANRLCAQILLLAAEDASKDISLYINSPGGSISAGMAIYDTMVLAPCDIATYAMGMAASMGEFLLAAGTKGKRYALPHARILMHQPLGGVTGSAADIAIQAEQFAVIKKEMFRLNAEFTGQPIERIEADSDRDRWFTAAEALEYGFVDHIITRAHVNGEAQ
Sequence of PaClpP1 (Q9I2U1 whole entry): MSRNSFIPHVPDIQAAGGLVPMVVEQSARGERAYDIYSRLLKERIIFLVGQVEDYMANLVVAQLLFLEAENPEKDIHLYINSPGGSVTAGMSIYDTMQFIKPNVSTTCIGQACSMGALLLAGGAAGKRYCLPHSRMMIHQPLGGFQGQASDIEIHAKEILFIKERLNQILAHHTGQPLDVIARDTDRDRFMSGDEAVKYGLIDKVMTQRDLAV
Sequence of EcClpP (P0A6G7 15-207): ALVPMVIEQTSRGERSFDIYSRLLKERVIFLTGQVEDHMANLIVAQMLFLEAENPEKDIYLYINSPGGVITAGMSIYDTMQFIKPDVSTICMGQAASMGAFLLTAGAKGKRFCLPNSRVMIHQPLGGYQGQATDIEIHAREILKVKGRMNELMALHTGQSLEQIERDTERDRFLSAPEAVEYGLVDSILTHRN

| Structure (SMILES) | IC50 (EcClpP) [µM] | IC50 (PaClpP1) [µM] | IC50 (MtbClpP1P2) [µM] | IC50 (hClpP) [µM] | IC50 (SaClpP) [µM] |
| --- | --- | --- | --- | --- | --- |
| COc1cc2c(Oc3ccc4[nH]c(C)cc4c3F)ncnc2cc1OCCCN1CCCC1 [cediranib] | > 100 | > 100 | 3.4 ± 0.7 | 36.6 ± 0.5 | > 100 |
| Cc1cc2c(F)c(Oc3ncnn4cc(OC[C@@H](C)O)c(C)c34)ccc2[nH]1 [brivanib] |  |  | 12.5 |  |  |
